# According to patent publication US11701316B2, “Synergistic anti-inflammatory compositions” (The Procter & Gamble Company, priority 2020, dated 2023):
# Where “and” joins values, the source holds several entries; their conditions need not be identical. Equal entries are not always repeated.
# How the values were obtained:
# [1] = tested on: PGE2 release from keratinocytes; test: Prostaglandin E2 (PGE2) assay in UVB-stressed TERT keratinocytes, normalized to ATP activity; type: cell-based, human; details: tKC
# Excerpt: Inhibiting the Cell's Inflammation Response to a Stressor—Prostaglandin E2 (“PGE2”) Assay.
# PGE2 is a hormone-like substance that is known to participate in modulation of inflammation. Cellular inflammation is associated with a variety of hair, skin and scalp conditions, and thus inhibiting PGE2 activation vis-à-vis cellular inflammation may help treat these types of hair, skin and scalp conditions.
# TERT keratinocytes (“tKC”-tKCs are human keratinocytes which have been transfected with the human telomerase reverse transcriptase gene to immortalize the cells) are obtained from Jerry Shay, University of Texas, Southwestern and plated at 40,000 cells/well into 24-well plates in 1 ml/well volume. EpiLife Medium (Life Technologies cat # MEPICFPRF500) supplemented with keratinocyte growth supplement (Life technologies cat #S-001-5) is used as the assay media. The cells are grown to confluence/near confluence, (typically 24 hours after plating 40,000 cells/well in 24 well plate) and then subjected to 15 mJ/cm^2 UVB-stress (typically […] in BioSun). The test compositions (strobilurins, salicylic acid, strobilurins+salicylic acid, and positive control 10 uM idebenone) are added to replace the medium (EpiLife Medium with 0.1% final concentration of DMSO-briefly, 1000× stocks of actives and combinations made in 100% DMSO and diluted into Epilife media 1 to 1000), and the plates are incubated for 18-24 hours. The supernatant is removed from each well, and the cells are rinsed with 2 ml/well medium (without supplements). A Cell Titer-Glo assay (Promega cat # G7571; Madison Wis.) is used to measure ATP activity, is conducted on the cells for normalization. The supernatant is tested in a PGE2 assay (Prostaglandin E2 Assay kit from Cisbio Bioassays cat# 62P2APEB) according to the manufacturer's instructions. The PGE2 results are normalized to ATP activity. The PGE2 quantitation (pg/mL) from the supernatant is divided by the normalization factor (treatment ATP/control ATP).
# Example Calculation to Compute PGE2 Inhibition by Strobilurin
# Luminescence of vehicle control in ATP assay=704567
# Luminescence of strobilurin treatment in ATP assay=678903
# Normalization factor for strobilurin treatment=1.038
# PGE2 quantitation for vehicle control=2458 pg/mL PGE2
# PGE2 quantitation for strobilurin treatment=2347 pg/mL PGE2
# Student's T-Test (equal variance, 2 sided) are used to calculate p-values between observed combinations and expected combinations with p-value <0.05 considered statistically significant. Expected combination values are calculated by adding the PGE2 inhibition values of strobilurins alone and salicylic acid alone. Synergy factor is simply the ratio of observed combination/expected combination. Synergy factors greater than 1.0 with a p-value <0.05 are deemed synergistic.
# [2] = cited from earlier work
# [3] = strobilurin alone, 1 × 10−5 w/v % (100:1), UVB
# [4] = strobilurin alone, 1 × 10−6 w/v % (10:1), UVB
# [5] = strobilurin alone, 1 × 10−7 w/v % (1:1), UVB
# [6] = strobilurin alone, 1 × 10−7 w/v % (column 1:10), 15 mJ/cm2 UVB, 18-24 hours
# [7] = strobilurin alone, 5 × 10−6 w/v % (50:1), UVB
smiles,measurement,setting,value
CO/C=C(/C(=O)OC)c1ccccc1Oc1cc(Oc2ccccc2C#N)ncn1 [azoxystrobin],% PGE2 Inhibition,[1]; [3],58%
same,% PGE2 Inhibition,[1]; [4],22%
same,% PGE2 Inhibition,[1]; [5],8%
same,% PGE2 Inhibition,[1]; [6],8%
same,% PGE2 Inhibition,[1]; [7],37%
same,solubility in water,[2],low
CNC(=O)/C(=N/OC)c1ccccc1COc1cc(C)ccc1C [dimoxystrobin],% PGE2 Inhibition,[1]; [3],13%
same,% PGE2 Inhibition,[1]; [4],7%
same,% PGE2 Inhibition,[1]; [5],4%
same,% PGE2 Inhibition,[1]; [6],4%
same,% PGE2 Inhibition,[1]; [7],11%
CO/N=C(/C1=NOCCO1)c1ccccc1Oc1ncnc(Oc2ccccc2Cl)c1F [fluoxastrobin],% PGE2 Inhibition,[1]; [3],42%
same,% PGE2 Inhibition,[1]; [4],9%
same,% PGE2 Inhibition,[1]; [5],5%
same,% PGE2 Inhibition,[1]; [6],5%
same,% PGE2 Inhibition,[1]; [7],17%
CO/N=C(/C(=O)OC)c1ccccc1COc1ccccc1C [kresoxim methyl],% PGE2 Inhibition,[1]; [3],12%
same,% PGE2 Inhibition,[1]; [4],7%
same,% PGE2 Inhibition,[1]; [5],5%
same,% PGE2 Inhibition,[1]; [6],5%
same,% PGE2 Inhibition,[1]; [7],9%
CNC(=O)/C(=N/OC)c1ccccc1CO/N=C(C)/C(=N/OC)C(/C)=N/OC [orysastrobin],% PGE2 Inhibition,[1]; [3],36%
same,% PGE2 Inhibition,[1]; [4],12%
same,% PGE2 Inhibition,[1]; [5],6%
same,% PGE2 Inhibition,[1]; [6],6%
same,% PGE2 Inhibition,[1]; [7],18%
CO/C=C(/C(=O)OC)c1ccccc1COc1cccc(C(F)(F)F)n1 [picoxystrobin],% PGE2 Inhibition,[1]; [3],24%
same,% PGE2 Inhibition,[1]; [4],12%
same,% PGE2 Inhibition,[1]; [5],6%
same,% PGE2 Inhibition,[1]; [6],6%
same,% PGE2 Inhibition,[1]; [7],18%
COC(=O)N(OC)c1ccccc1COc1ccn(-c2ccc(Cl)cc2)n1 [pyraclostrobin],% PGE2 Inhibition,[1]; [3],70.4%
same,% PGE2 Inhibition,[1]; [4],46.0%
same,% PGE2 Inhibition,[1]; [5],30.4%
same,% PGE2 Inhibition,[1]; [6],30.4%
same,% PGE2 Inhibition,[1]; [7],55.3%
"O=C(O)c1ccccc1O [salicylic acid, reference compound]",% PGE2 Inhibition,"[1]; salicylic acid alone, 1 × 10−6 (column 1:10), UVB",32% and 31.4%
same,% PGE2 Inhibition,"[1]; salicylic acid alone, 1 × 10−7 (1:1), UVB",18% and 16.2%
same,% PGE2 Inhibition,"[1]; salicylic acid alone, 1 × 10−7 (10:1), UVB",18% and 16.2%
same,% PGE2 Inhibition,"[1]; salicylic acid alone, 1 × 10−7 (50:1), UVB",18% and 16.2%
same,% PGE2 Inhibition,"[1]; salicylic acid alone, 1 × 10−7 (100:1), UVB",18% and 16.2%
CON=C(C(=O)OC)c1ccccc1CON=C(C)c1cccc(C(F)(F)F)c1 [trifloxystrobin],% PGE2 Inhibition,[1]; [3],8%
same,% PGE2 Inhibition,[1]; [4],7%
same,% PGE2 Inhibition,[1]; [5],5%
same,% PGE2 Inhibition,[1]; [6],5%
same,% PGE2 Inhibition,[1]; [7],8%
